Results: article PMC10622577, “Structural basis for stabilisation of the RAD51 nucleoprotein filament by BRCA2” (Nature Communications, 2023)

Test system: RAD51 D184A, D187A NPFs
Test: SPR of TR2 binding to RAD51 D184A, D187A NPFs
Set-up: species or system human
Protocol: We investigated further the effect of the acidic patch mutations on TR2 binding using surface plasmon resonance (SPR). We developed an SPR assay whereby increasing amounts of TR2 peptide were added to RAD51 NPFs that had been assembled on biotinylated DNA coupled to a streptavidin chip (Supplementary Fig. 3A, Supplementary Table 1). […] We used the same SPR assay to assess the effect of the mutations on the ability of BRC4 to disrupt an established filament (Supplementary Fig. 4A, Supplementary Table 1).
All SPR experiments were performed using a Biacore T200 instrument and an S-series SA (Streptavidin) sensor chip. A single chip was used to immobilise biotinylated single- and double-stranded DNA in buffer: 25 mM HEPES pH 7.4, 100 mM NaCl, 1 mM EDTA. ssDNA and dsDNA were immobilised in different channels to a signal of 120 RU and 250 RU, respectively.
All binding experiments were performed in CMA buffer: 25 mM HEPES pH 7.4, 100 mM NaCl, 2 mM DTT, 2 mM ATP, 5 mM CaCl2, 5 mM MgCl2. 1 μM RAD51 (wild-type, D184A or D184A, D187A mutant proteins) was injected for 120 seconds followed by buffer for 120 seconds at a flow rate of 10 μl/min. TR2 or BRC4 peptides were then injected in a concentration titration series of 0.1, 0.25, 0.5, 0.75, 1, 2, 3, 5, 7.5, 10 and 15 μM for 120 seconds at a flow rate of […] followed by a dissociation time of 240 seconds. After each injection of BRCA2 peptide, the sensor chip was regenerated with buffer comprising of CMA buffer with 1 M NaCl for 120 seconds at a flow rate of 100 μl/min. All experiments were performed in triplicate.
For the BRCA2 TR2 titration series, blank-subtracted sensorgrams were used to extract the maximum response accumulated after each TR2 injection. TR2 response accumulation was corrected to account for differences in RAD51 filament formation between runs, by multiplying the maximum response by a scale factor calculated as the ratio between mean RAD51 filament accumulation on each DNA substrate and the mean RAD51 accumulated for each mutant for each triplicate. The first experiment of the triplicate series for binding of TR2 to the D184A, D187A RAD51 NPF on dsDNA was discounted due to a failed peptide injection.
All graph plotting and statistical analysis was performed using Prism 9.3.1 (GraphPad). […] Data for each mutant on each substrate were fitted with a non-linear one-phase exponential decay.
Supplementary table 1. DNA oligos and peptides
Oligos Size (nt) Sequence (5’ – 3’)
D184A […] (forward),
D184A, D187A […] (forward),
EMSA, SPR, CryoEM (micrographs, […]
Supplementary figs. 3, 4 (ssDNA) 60 Biotin-[…]
Supplementary figs. 3, 4 (dsDNA) 60 Biotin-[…],
Panel A (ssDNA) 32 Cy5-[…]
Panel B (dsDNA) 50 […]-Cy3,
Panel B (ssDNA) 60 Biotin-[…]-
Panel B (dsDNA) 60 Biotin,
Panel C (ssDNA) 32 Biotin-[…]-Biotin […]

DDQKNCKKRRALDFLSRLPLPPPVSPICTFVSPAAQKAFQPPRSCGTKY [TR2, BRCA2 TR2 peptide spanning amino acids 3260 to 3308]
TR2 binding by SPR relative to D184A mutant (D187A compared with single D184A, n = 3): weaker binding compared with the single D184A mutant
TR2 binding by SPR relative to wild-type (D187A, Biacore T200, streptavidin chip, biotinylated ss- or dsDNA, CMA buffer pH 7.4, 1 μM RAD51, TR2 0.1-15 μM, 120 s, n = 3 (one dsDNA run discounted, failed injection)): clear reduction in TR2 binding
residual TR2 binding (D187A, SPR Fig. 1E, authors' response to reviewers): retain a degree of binding
impact of mutation on TR2 binding by SPR, ssDNA versus dsDNA (D187A, ssDNA compared with dsDNA, n = 3): stronger for NPFs formed on ssDNA
